Data taken from the NIST ThermoML archive (doi:10.1021/je800012v).

Experiment: xn = mol fraction of the nth substance listed
Conditions: Liquid

CCCCCl [1-chlorobutane] + CCCCCC
mass density [kg/m3]
Conditions | x1 = 0.1099 | x1 = 0.212 | x1 = 0.2925 | x1 = 0.316 | x1 = 0.405 | x1 = 0.4978 | x1 = 0.5975 | x1 = 0.6869 | x1 = 0.8294 | x1 = 0.9025
303.15 K, 15000 kPa | – | – | – | – | – | 763.87 | 786.55 | 807.83 | 843.86 | 863.22
303.15 K, 20000 kPa | 689.49 | 708.98 | 724.92 | 729.73 | 748.24 | 768.43 | 791.14 | 812.44 | 848.41 | 867.82
303.15 K, 25000 kPa | 693.71 | 713.22 | 729.21 | 733.98 | 752.58 | 772.8 | 795.51 | 816.83 | 852.75 | 872.22
303.15 K, 30000 kPa | 697.71 | 717.27 | 733.29 | 738.06 | 756.71 | 776.94 | 799.69 | 821.01 | 856.96 | 876.44
303.15 K, 35000 kPa | 701.46 | 721.06 | 737.11 | 741.91 | 760.56 | 780.82 | 803.62 | 824.94 | 860.94 | 880.41
313.15 K, 100 kPa | 660.25 | 679.39 | 695.16 | 699.82 | 718.21 | 738.18 | 760.7 | 781.81 | 817.54 | 836.89
313.15 K, 2500 kPa | 663.22 | 682.37 | 698.14 | 702.79 | 721.17 | 741.14 | 763.65 | 784.75 | 820.43 | 839.76
313.15 K, 5000 kPa | 666.15 | 685.31 | 701.06 | 705.74 | 724.11 | 744.08 | 766.58 | 787.66 | 823.33 | 842.65
313.15 K, 10000 kPa | 671.67 | 690.86 | 706.6 | 711.27 | 729.65 | 749.65 | 772.1 | 793.2 | 828.82 | 848.11
313.15 K, 15000 kPa | 676.77 | 695.99 | 711.76 | 716.43 | 734.82 | 754.83 | 777.29 | 798.39 | 833.99 | 853.27
313.15 K, 20000 kPa | 681.54 | 700.78 | 716.6 | 721.27 | 739.68 | 759.7 | 782.18 | 803.3 | 838.9 | 858.17
313.15 K, 25000 kPa | 686.03 | 705.32 | 721.16 | 725.85 | 744.28 | 764.34 | 786.8 | 807.96 | 843.57 | 862.84
313.15 K, 30000 kPa | 690.26 | 709.59 | 725.44 | 730.12 | 748.61 | 768.68 | 791.2 | 812.36 | 847.97 | 867.27
313.15 K, 35000 kPa | 694.28 | 713.66 | 729.55 | 734.28 | 752.76 | 772.87 | 795.4 | 816.59 | 852.24 | 871.55
323.15 K, 100 kPa | 650.68 | 669.65 | 685.16 | 689.81 | 708 | 727.88 | 750.16 | 771.11 | 806.56 | 825.76
323.15 K, 2500 kPa | 653.88 | 672.84 | 688.38 | 693.01 | 711.21 | 730.97 | 753.32 | 774.25 | 809.67 | 828.84
323.15 K, 5000 kPa | 657.08 | 676.07 | 691.59 | 696.23 | 714.41 | 734.25 | 756.52 | 777.43 | 812.8 | 831.94
323.15 K, 10000 kPa | 663.04 | 682.03 | 697.57 | 702.21 | 720.41 | 740.23 | 762.49 | 783.36 | 818.69 | 837.82
323.15 K, 15000 kPa | 668.53 | 687.54 | 703.11 | 707.76 | 725.96 | 745.81 | 768.07 | 788.94 | 824.21 | 843.35
323.15 K, 20000 kPa | 673.62 | 692.66 | 708.23 | 712.92 | 731.15 | 751.01 | 773.25 | 794.16 | 829.43 | 848.55
323.15 K, 25000 kPa | 678.38 | 697.47 | 713.06 | 717.75 | 736.01 | 755.88 | 778.17 | 799.07 | 834.36 | 853.47
323.15 K, 30000 kPa | 682.82 | 701.95 | 717.58 | 722.3 | 740.59 | 760.48 | 782.79 | 803.7 | 839.01 | 858.16
323.15 K, 35000 kPa | 687.05 | 706.22 | 721.89 | 726.62 | 744.94 | 764.87 | 787.22 | 808.14 | 843.47 | 862.63
333.15 K, 100 kPa | 640.84 | 659.59 | 674.97 | 679.61 | 697.62 | 717.27 | 739.37 | 760.13 | 795.31 | 814.35
333.15 K, 2500 kPa | 644.37 | 663.28 | 678.48 | 683.13 | 701.13 | 720.76 | 742.8 | 763.57 | 798.68 | 817.7
333.15 K, 5000 kPa | 647.85 | 666.6 | 681.96 | 686.6 | 704.59 | 724.22 | 746.27 | 766.97 | 802.05 | 821.05
333.15 K, 10000 kPa | 654.25 | 673.04 | 688.41 | 693.04 | 711.02 | 730.64 | 752.68 | 773.35 | 808.4 | 827.36
333.15 K, 15000 kPa | 660.12 | 678.96 | 694.34 | 698.97 | 716.97 | 736.59 | 758.64 | 779.29 | 814.33 | 833.22
333.15 K, 20000 kPa | 665.54 | 684.42 | 699.82 | 704.46 | 722.46 | 742.1 | 764.16 | 784.83 | 819.85 | 838.75
333.15 K, 25000 kPa | 670.56 | 689.51 | 704.94 | 709.59 | 727.62 | 747.28 | 769.35 | 790.03 | 825.07 | 843.95
333.15 K, 30000 kPa | 675.27 | 694.27 | 709.73 | 714.38 | 732.45 | 752.13 | 774.27 | 794.94 | 830 | 848.89
333.15 K, 35000 kPa | 679.71 | 698.78 | 714.25 | 718.92 | 737.02 | 756.72 | 778.9 | 799.6 | 834.7 | 853.59
